ChEMBL document CHEMBL5034019, “Discovery of the Next-Generation Pan-TRK Kinase Inhibitors for the Treatment of Cancer” (J Med Chem, 2021)
Active and inactive are the calls of the source. The calls are words filed in the database; no cut-off is given here.

Legend:
BaF3 = experiment: Antitumor activity against mouse BaF3 cells transfected with LMNA-NTRK1 xenografted in mouse assessed as tumor growth inhibition at 100 mg/kg, po administered once daily for 21 days and measured twice weekly; details: time 21.0 day
[1] = AUC (0 to t) in Sprague-Dawley rat at 10 mg/kg, po measured up to 24 hrs by LC-MS/MS analysis; type: ADME, organism-based; set-up: route oral, dose 10 mg/kg, time <=24; details: in vivo
[2] = Toxicity in mouse xenografted with mouse BaF3 cells transfected with ETV6-NTRK3-G623R mutant assessed as weight loss at 100 mg/kg, po administered once daily for 21 days and measured twice weekly; details: in vivo, 504 h
[3] = Toxicity in mouse xenografted with mouse BaF3 cells transfected with LMNA-NTRK1-G595R mutant assessed as weight loss at 100 mg/kg, po administered once daily for 21 days and measured twice weekly; details: in vivo, 504 h
[4] = molecular target: Tyrosine-protein kinase JAK2 (Homo sapiens) (UniProt O60674); experiment: Inhibition of human JAK2 (808 to end residues) assessed as residual activity at 0.5 uM using KTFCGTPEYLAPEVRREPRILSEEEQEMFRDFDYIADWC as substrate after 40 mins by [gamma-33ATP] radiometric assay relative to control
Homo sapiens = species on record: Homo sapiens; experiment: Inhibition of recombinant […] human B-Raf V599E mutant (416 to end residues) assessed as residual activity at 0.5 uM using myelin basic protein as substrate incubated for 40 mins in presence of [gamma-33ATP] by scintillation counting based radiometry assay relative to control
[5] = molecular target: Proto-oncogene tyrosine-protein kinase receptor Ret (Homo sapiens) (UniProt P07949); experiment: Inhibition of recombinant human Ret (658 to end residues) assessed as residual activity at 0.5 uM using KKKSPGEYVNIEFG as substrate incubated for 40 mins in presence of [gamma33P]ATP by scintillation counting based radiometry assay relative to control
[6] = molecular target: NT-3 growth factor receptor (Homo sapiens, UniProt Q16288); experiment: Inhibition of human TrkC (510 to end residues) assessed as residual activity at 0.5 uM using GEEPLYWSFPAKKK as substrate measured after 40 mins in presence of [gamma33P]ATP by scintillation counting method relative to control
[7] = molecular target: Macrophage-stimulating protein receptor (Homo sapiens) (UniProt Q04912); experiment: Inhibition of recombinant human Ron (983 to end residues) assessed as residual activity at 0.5 uM using GGMEDIYFEFMGGKKK as substrate incubated for 40 mins in presence of [gamma33P]ATP by scintillation counting based radiometry assay relative to control
[8] = Oral bioavailability in male Sprague-Dawley rat at 10 mg/kg measured up to 24 hrs by LC/MS/MS analysis; type: ADME, organism-based; details: in vivo
[9] = Half life in female Sprague-Dawley rat at 2 mg/kg, iv measured up to 24 hrs by LC-MS/MS analysis; type: ADME, organism-based; details: in vivo
[10] = AUC (0 to t) in male Sprague-Dawley rat at 10 mg/kg, po measured up to 24 hrs by LC-MS/MS analysis; type: ADME, organism-based; set-up: route oral, dose 10 mg/kg, time <=24; details: in vivo
[11] = molecular target: Serine/threonine-protein kinase A-Raf (Homo sapiens) (UniProt P10398); experiment: Inhibition of recombinant human A-Raf (273 to end residues) assessed as residual activity at 0.5 uM using myelin as substrate incubated for 40 mins in presence of [gamma-33P]-ATP by scintillation counting method relative to control
[12] = molecular target: Fibroblast growth factor receptor 1 (Homo sapiens) (UniProt P11362); experiment: Inhibition of recombinant human FGFR1 (456 to 765 residues) assessed as residual activity at 0.5 uM using KKKSPGEYVNIEF as substrate at 40 mins in presence of [gamma-33ATP] by scintillation counting based radiometry assay relative to control
[13] = Clearance in female Sprague-Dawley rat at 2 mg/kg, iv measured up to 24 hrs by LC/MS/MS analysis; type: ADME, organism-based; details: in vivo
[14] = molecular target: BDNF/NT-3 growth factors receptor (Homo sapiens) (UniProt Q16620); experiment: Inhibition of human TrkB (455 to end residues) assessed as residual activity at 0.5 uM using poly(Glu, Tyr) 4:1 as substrate measured after 40 mins in presence of [gamma33P]ATP by scintillation counting method relative to control
[15] = tested on: Mast/stem cell growth factor receptor Kit (Homo sapiens), P10721 [D816V]; experiment: Inhibition of recombinant human C-Kit D816V mutant (544 to end residues) assessed as residual activity at 0.5 uM poly(Glu, Tyr) 4:1 as substrate incubated 40 mins in presence of [gamma-33ATP] by scintillation counting based radiometry assay relative to control
[16] = molecular target: Epidermal growth factor receptor (Homo sapiens) (UniProt P00533); experiment: Inhibition of recombinant human EGFR (696 to end residues) assessed as residual activity at 0.5 uM using poly(Glu, Tyr) 4:1 as substrate at 40 mins in presence of [gamma-33ATP] by scintillation counting based radiometry assay relative to control
[17] = AUC (0 to t) in male Sprague-Dawley rat at 2 mg/kg, iv measured up to 24 hrs by LC-MS/MS analysis; type: ADME, organism-based; set-up: route intravenous, dose 2 mg/kg, time <=24; details: in vivo
[18] = tested on: Hepatocyte growth factor receptor (Homo sapiens), P08581 [Y1248H]; experiment: Inhibition of recombinant human Met Y1248H mutant (974 to end residues) assessed as residual activity at 0.5 uM using KKKGQEEEYVFIE as substrate incubated for 40 mins in presence of [gamma-33P]-ATP by scintillation counting method relative to control
[19] = tested on: Hepatocyte growth factor receptor (Homo sapiens), P08581 [D1246H]; experiment: Inhibition of recombinant human Met D1246H mutant (974 to end residues) assessed as residual activity at 0.5 uM using KKKGQEEEYVFIE as substrate incubated for 40 mins in presence of [gamma-33P]-ATP by scintillation counting method relative to control
[20] = molecular target: Vascular endothelial growth factor receptor 2 (Homo sapiens) (UniProt P35968); experiment: Inhibition of human KDR (790 to end residues) assessed as residual activity at 0.5 uM using myelin basic protein as substrate after 40 mins by [gamma-33ATP] radiometric assay relative to control
[21] = AUC (0 to t) in female Sprague-Dawley rat at 10 mg/kg, po measured up to 24 hrs by LC-MS/MS analysis; type: ADME, organism-based; set-up: route oral, dose 10 mg/kg, time <=24; details: in vivo
[22] = Tmax in female Sprague-Dawley rat at 10 mg/kg, po measured up to 24 hrs by LC-MS analysis; type: ADME, organism-based; details: in vivo
[23] = tested on: Mast/stem cell growth factor receptor Kit (Homo sapiens), P10721 [D816H]; experiment: Inhibition of recombinant human C-Kit D816H mutant (544 to end residues) assessed as residual activity at 0.5 uM poly(Glu, Tyr) 4:1 as substrate incubated 40 mins in presence of [gamma-33ATP] by scintillation counting based radiometry assay relative to control

Sequence of Macrophage-stimulating protein receptor (Homo sapiens) (Q04912 25-304 limits assumed): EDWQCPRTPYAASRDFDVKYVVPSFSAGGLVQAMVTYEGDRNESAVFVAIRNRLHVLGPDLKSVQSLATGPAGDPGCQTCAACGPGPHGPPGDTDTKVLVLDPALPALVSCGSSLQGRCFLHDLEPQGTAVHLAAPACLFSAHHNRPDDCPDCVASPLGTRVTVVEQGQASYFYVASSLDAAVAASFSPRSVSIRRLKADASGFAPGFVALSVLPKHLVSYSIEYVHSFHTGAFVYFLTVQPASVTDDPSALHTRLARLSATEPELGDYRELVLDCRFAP
Sequence of Macrophage-stimulating protein receptor (Homo sapiens) (Q04912 310-1400 limits assumed): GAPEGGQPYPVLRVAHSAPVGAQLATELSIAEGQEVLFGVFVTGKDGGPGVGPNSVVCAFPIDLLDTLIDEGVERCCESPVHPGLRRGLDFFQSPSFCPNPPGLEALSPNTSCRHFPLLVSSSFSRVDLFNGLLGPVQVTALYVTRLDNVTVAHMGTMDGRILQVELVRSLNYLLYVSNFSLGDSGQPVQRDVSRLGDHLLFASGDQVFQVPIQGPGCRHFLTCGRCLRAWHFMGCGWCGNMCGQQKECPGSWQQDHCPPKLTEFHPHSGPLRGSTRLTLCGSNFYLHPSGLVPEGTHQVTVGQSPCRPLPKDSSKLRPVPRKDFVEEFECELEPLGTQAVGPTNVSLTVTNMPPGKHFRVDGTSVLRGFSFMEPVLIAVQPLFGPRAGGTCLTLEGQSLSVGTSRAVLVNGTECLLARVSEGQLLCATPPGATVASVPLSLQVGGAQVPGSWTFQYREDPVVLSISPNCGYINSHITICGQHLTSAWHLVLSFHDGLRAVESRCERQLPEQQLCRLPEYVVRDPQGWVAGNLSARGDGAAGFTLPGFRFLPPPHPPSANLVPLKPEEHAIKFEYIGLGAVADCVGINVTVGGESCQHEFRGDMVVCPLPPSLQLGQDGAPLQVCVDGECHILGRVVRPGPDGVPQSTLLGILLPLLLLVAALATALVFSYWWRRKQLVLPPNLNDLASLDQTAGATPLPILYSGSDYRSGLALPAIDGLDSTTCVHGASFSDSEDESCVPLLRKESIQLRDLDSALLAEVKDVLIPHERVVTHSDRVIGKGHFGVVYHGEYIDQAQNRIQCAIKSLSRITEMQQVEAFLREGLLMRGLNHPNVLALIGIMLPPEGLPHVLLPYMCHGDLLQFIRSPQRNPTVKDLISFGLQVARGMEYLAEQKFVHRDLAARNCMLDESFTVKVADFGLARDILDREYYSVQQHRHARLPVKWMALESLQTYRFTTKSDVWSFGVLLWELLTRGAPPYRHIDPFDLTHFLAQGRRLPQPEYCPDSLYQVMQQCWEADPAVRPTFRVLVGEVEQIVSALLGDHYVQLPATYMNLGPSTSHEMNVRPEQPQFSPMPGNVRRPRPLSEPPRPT
Sequence of Serine/threonine-protein kinase A-Raf (Homo sapiens) (P10398 whole entry, the tested form may be a part): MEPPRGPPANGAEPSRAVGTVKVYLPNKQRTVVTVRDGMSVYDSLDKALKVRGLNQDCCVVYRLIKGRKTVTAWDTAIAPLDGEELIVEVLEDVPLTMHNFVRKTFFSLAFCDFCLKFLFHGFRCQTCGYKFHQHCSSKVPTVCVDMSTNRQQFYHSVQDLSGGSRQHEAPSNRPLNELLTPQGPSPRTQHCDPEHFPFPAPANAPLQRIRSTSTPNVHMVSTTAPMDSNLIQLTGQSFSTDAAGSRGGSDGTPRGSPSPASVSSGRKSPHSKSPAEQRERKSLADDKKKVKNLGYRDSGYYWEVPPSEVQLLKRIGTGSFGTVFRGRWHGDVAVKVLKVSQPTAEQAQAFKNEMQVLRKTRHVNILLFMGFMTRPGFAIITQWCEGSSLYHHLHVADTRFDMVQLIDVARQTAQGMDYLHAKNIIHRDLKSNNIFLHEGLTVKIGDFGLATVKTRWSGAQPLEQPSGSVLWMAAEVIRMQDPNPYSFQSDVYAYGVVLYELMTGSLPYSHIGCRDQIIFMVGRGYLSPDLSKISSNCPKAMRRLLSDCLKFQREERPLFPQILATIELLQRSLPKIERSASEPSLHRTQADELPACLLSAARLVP
Sequence of Epidermal growth factor receptor (Homo sapiens) (P00533 whole entry): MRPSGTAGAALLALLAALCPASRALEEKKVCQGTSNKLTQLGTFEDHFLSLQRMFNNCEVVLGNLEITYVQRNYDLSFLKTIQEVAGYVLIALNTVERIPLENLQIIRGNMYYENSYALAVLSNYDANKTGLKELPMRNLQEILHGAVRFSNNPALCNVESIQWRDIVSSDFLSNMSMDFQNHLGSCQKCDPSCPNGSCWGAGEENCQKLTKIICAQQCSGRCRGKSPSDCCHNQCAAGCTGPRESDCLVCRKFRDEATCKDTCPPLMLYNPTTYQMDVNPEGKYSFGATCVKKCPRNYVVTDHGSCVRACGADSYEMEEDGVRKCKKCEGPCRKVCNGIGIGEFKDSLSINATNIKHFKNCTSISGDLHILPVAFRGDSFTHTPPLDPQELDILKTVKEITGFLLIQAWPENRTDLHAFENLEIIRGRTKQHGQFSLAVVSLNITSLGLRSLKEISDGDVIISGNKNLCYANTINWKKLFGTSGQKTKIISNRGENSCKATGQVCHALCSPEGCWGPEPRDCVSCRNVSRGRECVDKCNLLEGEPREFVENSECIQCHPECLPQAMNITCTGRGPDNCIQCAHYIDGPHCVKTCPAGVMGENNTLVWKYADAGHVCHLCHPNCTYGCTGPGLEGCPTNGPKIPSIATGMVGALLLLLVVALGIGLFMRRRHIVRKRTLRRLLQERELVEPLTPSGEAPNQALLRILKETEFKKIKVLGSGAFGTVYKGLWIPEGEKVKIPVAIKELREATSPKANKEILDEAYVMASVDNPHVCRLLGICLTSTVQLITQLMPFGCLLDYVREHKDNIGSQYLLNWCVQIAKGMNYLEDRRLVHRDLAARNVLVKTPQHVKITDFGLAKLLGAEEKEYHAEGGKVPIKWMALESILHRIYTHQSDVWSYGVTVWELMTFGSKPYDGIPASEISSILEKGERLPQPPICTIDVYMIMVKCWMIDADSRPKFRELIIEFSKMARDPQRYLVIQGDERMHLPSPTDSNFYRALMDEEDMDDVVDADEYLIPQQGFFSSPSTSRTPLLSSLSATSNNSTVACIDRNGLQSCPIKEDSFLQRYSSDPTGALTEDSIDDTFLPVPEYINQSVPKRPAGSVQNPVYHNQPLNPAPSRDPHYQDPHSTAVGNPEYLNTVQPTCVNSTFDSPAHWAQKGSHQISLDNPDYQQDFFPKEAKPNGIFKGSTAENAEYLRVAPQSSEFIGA
Sequence of Vascular endothelial growth factor receptor 2 (Homo sapiens) (P35968 whole entry): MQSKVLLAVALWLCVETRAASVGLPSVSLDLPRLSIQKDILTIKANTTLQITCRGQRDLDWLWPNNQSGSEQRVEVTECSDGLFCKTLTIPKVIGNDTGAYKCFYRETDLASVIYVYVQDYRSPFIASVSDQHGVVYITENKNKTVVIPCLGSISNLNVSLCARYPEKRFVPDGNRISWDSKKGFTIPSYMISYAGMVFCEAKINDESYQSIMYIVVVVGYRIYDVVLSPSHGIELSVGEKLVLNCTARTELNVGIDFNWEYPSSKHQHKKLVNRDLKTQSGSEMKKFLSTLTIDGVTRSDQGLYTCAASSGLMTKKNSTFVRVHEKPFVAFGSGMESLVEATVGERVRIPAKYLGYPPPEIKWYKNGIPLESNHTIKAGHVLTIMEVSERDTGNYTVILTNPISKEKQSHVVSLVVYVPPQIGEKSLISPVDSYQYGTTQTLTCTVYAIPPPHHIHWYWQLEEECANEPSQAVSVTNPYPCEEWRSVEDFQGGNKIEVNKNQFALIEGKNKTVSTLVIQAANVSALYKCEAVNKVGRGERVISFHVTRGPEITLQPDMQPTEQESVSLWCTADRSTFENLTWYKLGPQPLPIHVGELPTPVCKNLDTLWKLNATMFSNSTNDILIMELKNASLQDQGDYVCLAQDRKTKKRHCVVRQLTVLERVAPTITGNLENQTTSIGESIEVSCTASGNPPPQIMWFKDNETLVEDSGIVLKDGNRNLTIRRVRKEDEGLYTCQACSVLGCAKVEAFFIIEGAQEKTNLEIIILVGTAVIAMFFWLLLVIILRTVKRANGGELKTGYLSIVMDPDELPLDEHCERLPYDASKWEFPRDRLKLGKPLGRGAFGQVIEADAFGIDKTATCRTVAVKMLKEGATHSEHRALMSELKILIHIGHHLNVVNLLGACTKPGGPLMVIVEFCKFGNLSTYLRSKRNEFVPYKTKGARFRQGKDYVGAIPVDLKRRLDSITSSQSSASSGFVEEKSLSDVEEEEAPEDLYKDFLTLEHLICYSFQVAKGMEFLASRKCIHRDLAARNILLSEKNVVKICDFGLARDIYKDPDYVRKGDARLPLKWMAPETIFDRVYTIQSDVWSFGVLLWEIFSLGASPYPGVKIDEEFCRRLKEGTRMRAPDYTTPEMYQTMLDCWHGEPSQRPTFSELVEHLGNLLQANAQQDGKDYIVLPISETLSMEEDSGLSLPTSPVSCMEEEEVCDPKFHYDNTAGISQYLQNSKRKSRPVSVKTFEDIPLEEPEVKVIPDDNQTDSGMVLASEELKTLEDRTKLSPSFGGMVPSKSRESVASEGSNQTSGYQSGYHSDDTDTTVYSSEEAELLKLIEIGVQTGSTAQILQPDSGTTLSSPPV

SMILES: C[C@@H]1CCc2ncc(F)cc2[C@H]2CCCN2c2ccn3ncc(c3n2)C(=O)N1 [SELITRECTINIB]
- Activity (BaF3): Active
- AUC(0-t) at 24 h [1]: 27.3 µM·h
- Activity [2]: Toxic
- Activity [3]: Toxic

SMILES: O=C1NC2(CC2)COc2ncc(F)cc2[C@H]2COCCN2c2ccn3ncc1c3n2
- Activity [4]: 44%
- Activity (Homo sapiens): 87%
- Activity [5]: 64%
- Activity [6]: -3%
- Activity [7]: 112%
- bioavailability [8]: 56%
- half-life [9]: 2.21 h
- AUC(0-t) at 24 h [10]: 11.7 µM·h
- Activity [11]: 103%
- Activity [12]: 92%
- clearance [13]: 8.19 mL/min/kg
- Activity [14]: -1%
- Activity [15]: 101%
- Activity [16]: 108%
- AUC(0-t) at 24 h [17]: 4.19 µM·h
- Activity [18]: 89%
- Activity [19]: 91%
- Activity [20]: 108%
- AUC(0-t) at 24 h [21]: 31.7 µM·h
- Tmax [22]: 0.667 h
- Activity [23]: 96%
